Earlier results as cited in paper PMC8035703, “Effect of Synchronous Versus Sequential Regimens on the Pharmacokinetics and Biodistribution of Regorafenib with Irradiation” (Pharmaceutics, 2021).

Parameters: method as in PMID 26867886, PMID 28202227, PMID 24971021
Settings: HCC patients who received RT concurrently or sequentially with sorafenib; cited from earlier work

## CNC(=O)c1cc(Oc2ccc(NC(=O)Nc3ccc(Cl)c(C(F)(F)F)c3)cc2)ccn1 [sorafenib]
  Incidence of adverse effects: > 30%
